# According to ChEMBL document CHEMBL1201862, “PubChem BioAssay data set” (2004):
# The source made the active and inactive calls.
# Legend:
# [1] = biological target: T1, Methionyl-tRNA synthetase, putative (Trypanosoma brucei brucei, UniProt Q38C91); format: functional, Trypanosoma brucei brucei strain 927/4 GUTat10.1
# T1 sequence (Q38C91 whole entry): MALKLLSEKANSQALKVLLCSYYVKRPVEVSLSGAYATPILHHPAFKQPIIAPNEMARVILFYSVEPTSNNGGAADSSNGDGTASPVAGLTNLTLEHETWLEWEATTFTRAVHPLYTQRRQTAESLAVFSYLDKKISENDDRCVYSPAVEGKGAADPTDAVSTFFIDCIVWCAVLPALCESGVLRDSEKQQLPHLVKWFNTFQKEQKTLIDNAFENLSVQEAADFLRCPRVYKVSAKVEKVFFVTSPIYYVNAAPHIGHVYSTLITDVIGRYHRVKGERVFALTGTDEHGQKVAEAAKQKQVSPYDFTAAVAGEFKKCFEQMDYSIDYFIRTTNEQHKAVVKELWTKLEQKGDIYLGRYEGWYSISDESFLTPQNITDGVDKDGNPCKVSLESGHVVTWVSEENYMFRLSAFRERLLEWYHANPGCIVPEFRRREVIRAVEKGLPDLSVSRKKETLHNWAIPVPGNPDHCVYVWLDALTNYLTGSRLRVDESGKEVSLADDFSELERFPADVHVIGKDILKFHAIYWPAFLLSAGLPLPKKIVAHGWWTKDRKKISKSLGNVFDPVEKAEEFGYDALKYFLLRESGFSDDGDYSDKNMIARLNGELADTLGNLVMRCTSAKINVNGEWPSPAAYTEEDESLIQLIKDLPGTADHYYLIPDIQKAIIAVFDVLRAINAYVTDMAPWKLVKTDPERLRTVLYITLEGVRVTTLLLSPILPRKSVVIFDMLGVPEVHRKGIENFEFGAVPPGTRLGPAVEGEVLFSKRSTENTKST
# [2] = biological target: T1, Methionyl-tRNA synthetase, putative; format: functional, Trypanosoma brucei brucei strain 927/4 GUTat10.1; remark: listed apart in the source
# [3] = Counterscreen for inhibitors of Trypanosoma brucei methionyl tRNA synthetase (MetRS): Luminescence-based cell-based high throughput dose response assay to identify compounds that are cytotoxic to Jurkat human T lymphocyte cells.; format: functional
# Caspase-3 = biological target: T2, Caspase-3 (Homo sapiens, UniProt P42574); format: functional;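 note: Dose-response selectivity test against caspase-3 for candidate inhibitors of sentrin-specific proteases (SENPs)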
# T2 sequence (P42574 whole entry): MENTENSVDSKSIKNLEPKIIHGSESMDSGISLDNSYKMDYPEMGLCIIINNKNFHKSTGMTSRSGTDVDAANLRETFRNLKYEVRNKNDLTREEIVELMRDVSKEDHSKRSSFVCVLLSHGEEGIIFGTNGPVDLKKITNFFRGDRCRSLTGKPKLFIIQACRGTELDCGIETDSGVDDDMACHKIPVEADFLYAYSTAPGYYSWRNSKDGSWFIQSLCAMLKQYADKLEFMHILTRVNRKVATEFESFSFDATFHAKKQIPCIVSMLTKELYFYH
# [4] = biological target: T3, Sentrin-specific protease 6 (Homo sapiens, UniProt Q9GZR1); format: functional;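 note: Luminescence-based dose-response confirmatory assay of SENP6 inhibition, following up an ultra-high-throughput screen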
# T3 sequence (Q9GZR1 whole entry): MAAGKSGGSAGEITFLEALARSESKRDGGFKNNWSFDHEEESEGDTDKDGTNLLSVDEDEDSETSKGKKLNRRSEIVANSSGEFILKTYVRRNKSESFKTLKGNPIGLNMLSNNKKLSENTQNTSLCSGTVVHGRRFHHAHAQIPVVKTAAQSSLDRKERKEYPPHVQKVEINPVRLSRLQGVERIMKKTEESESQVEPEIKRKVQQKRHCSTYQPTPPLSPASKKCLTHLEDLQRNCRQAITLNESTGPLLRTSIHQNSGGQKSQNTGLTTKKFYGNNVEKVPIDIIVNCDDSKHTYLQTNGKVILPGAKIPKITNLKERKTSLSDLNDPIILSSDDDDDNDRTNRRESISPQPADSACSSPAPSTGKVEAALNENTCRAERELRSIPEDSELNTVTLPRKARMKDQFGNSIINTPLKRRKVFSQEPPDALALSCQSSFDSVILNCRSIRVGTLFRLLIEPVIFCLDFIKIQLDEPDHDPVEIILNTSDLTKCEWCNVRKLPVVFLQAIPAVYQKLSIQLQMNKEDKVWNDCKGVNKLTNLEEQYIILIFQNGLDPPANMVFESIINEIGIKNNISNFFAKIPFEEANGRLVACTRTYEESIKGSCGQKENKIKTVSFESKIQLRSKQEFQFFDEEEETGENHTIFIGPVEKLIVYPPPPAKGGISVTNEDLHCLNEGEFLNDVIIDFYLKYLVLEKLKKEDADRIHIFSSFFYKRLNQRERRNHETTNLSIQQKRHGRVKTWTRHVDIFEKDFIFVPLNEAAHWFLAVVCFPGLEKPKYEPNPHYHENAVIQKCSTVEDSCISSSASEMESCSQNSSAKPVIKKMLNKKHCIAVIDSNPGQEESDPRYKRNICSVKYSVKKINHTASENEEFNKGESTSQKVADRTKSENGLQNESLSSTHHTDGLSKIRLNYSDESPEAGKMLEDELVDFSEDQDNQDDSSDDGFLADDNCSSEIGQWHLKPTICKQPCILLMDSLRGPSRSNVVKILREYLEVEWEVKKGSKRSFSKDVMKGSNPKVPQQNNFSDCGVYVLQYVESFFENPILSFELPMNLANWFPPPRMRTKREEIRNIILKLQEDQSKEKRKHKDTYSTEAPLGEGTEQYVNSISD
# [5] = biological target: T4, Sentrin-specific protease 8 (Homo sapiens, UniProt Q96LD8); format: functional;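 note: luminescence read-out of SENP8 inhibition, dose-response confirmation following an ultra-high-throughput screen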
# T4 sequence (Q96LD8 whole entry): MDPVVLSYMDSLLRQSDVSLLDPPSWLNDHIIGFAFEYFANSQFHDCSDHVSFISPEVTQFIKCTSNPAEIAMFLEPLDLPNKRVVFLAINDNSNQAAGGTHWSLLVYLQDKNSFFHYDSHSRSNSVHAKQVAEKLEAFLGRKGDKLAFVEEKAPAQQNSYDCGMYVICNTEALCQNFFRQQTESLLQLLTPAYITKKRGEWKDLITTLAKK
# [6] = biological target: T5, Sentrin-specific protease 7 (Homo sapiens, UniProt Q9BQF6); format: functional;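 note: Luminescence-based dose-response confirmation of ultra-high-throughput screening hits, measuring inhibition of SENP7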
# T5 sequence (Q9BQF6 whole entry): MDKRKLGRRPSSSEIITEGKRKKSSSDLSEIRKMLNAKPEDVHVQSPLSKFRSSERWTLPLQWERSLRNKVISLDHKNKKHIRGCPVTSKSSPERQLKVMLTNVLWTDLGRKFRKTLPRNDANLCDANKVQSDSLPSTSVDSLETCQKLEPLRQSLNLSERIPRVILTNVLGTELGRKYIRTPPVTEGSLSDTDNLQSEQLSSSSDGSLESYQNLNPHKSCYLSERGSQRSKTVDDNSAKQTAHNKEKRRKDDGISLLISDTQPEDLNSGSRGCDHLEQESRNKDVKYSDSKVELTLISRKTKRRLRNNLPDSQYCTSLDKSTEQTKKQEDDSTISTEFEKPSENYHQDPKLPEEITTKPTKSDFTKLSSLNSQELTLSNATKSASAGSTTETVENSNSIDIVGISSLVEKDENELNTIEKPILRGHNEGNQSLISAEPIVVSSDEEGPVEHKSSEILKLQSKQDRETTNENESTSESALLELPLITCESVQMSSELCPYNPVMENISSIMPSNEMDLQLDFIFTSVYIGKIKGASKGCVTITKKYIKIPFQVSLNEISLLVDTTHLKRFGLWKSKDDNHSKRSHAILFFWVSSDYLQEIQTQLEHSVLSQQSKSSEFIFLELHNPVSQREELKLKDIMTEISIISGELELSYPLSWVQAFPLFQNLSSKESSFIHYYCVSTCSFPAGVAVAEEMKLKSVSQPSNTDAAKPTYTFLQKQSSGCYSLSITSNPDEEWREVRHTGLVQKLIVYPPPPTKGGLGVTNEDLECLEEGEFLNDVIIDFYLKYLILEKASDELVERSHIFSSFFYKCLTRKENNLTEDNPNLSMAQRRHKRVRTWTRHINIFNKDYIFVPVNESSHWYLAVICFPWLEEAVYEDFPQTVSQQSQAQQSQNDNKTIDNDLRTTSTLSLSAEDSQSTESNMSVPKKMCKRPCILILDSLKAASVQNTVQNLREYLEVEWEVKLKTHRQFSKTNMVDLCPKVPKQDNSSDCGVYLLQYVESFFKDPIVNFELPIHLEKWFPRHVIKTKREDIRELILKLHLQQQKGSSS
# H4 = test: Luminescence Cell-Based Dose Response HTS to Identify Activators of 5'UTR Stem-Loop Driven Prion Protein mRNA Translation in H4 Neuroglioblastoma Cells. [Related pubchem assays: 1829 (Project Summary), 1814 (Primary HTS)]; format: functional; conditions: Homo sapiens
# [7] = Luminescence Cell-Based Dose Response HTS to Identify Activators of Luciferase Translation or Activity in H4 […] Cells. [Related pubchem assays: 1829 (Project Summary), 1814 (Primary HTS)]; format: functional
# [8] = biological target: Glucose-6-phosphate 1-dehydrogenase (Homo sapiens, UniProt P11413); test: human G6PD enzyme inhibitors, dose response, selectivity assay for P. falciparum G6PD inhibitor project, biochemical, fluorescence (AID 504792); format: functional
# [9] = C. albicans growth with fluconazole, confirmation, fluorescence, retest (AID 2467); format: functional, cell-based
# [10] = NIH-3T3 fibroblast cytotoxicity, dose response, cytotoxicity control, cell-based, fluorescence, Alamar Blue, secondary assay (AID 2327); format: functional;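 note: NIH-3T3 mouse fibroblasts cultured with fluconazole at 8 µg/mL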
# cells [11] = format: functional, cell-based
# cells [12] = format: functional, cell-based; remark: listed apart in the source
# [13] = cytotoxicity toward NIH3T3 fibroblasts, dose response, counter-screen, cell-based, ATP luminescence, mouse fibroblasts (AID 2010); format: functional;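 note: cells exposed to compound for about 90 hours before reading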
# INS1 = test: beta cell apoptosis inhibitors, cytokine rescue, dose response, luminescence, retest (AID 449756); format: functional, cell-based; conditions: Rattus norvegicus;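 note: cell death triggered by IL-1 beta plus TNF-alpha plus IFN-gamma mixture; protective hits raise ATP signal compared with cytokine alone wells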
# [14] = inhibitors of intracellular T. cruzi replication, confirmation, NIH3T3 host cells, beta-gal luminescence (AID 2044); format: functional, cell-based;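 note: intracellular parasites grown in NIH/3T3 mouse fibroblasts as host cells; luminescent beta-galactosidase reporter signal from transgenic T. cruzi replicating inside host cells; inhibitors lower the luminescence signal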
# [15] = THP-1 cell cytotoxicity, dose response, cytotoxicity control for non-replicating M. tuberculosis project (AID 489025); format: functional
# cells [16] = format: functional
# [17] = Luminescence Cell-Based Dose Confirmation HTS to Identify Inhibitors of Platelet Dense Granule Release. [Related pubchem assays: 1663 (Primary HTS), 1678 (Summary of Project)]; format: functional
# [18] = biological target: FAD-linked sulfhydryl oxidase ALR (Homo sapiens, UniProt P55789); test: inhibitors of human ALR sulfhydryl oxidase, dose response, biochemical, H2O2 detection, luminescence, cherry-pick (AID 493248)
# [19] = biological target: Luciferin 4-monooxygenase (Photinus pyralis, UniProt P08659); test: firefly luciferase enzyme inhibitors, dose response, biochemical, luminescence (AID 1891)
# Luciferin 4-monooxygenase, sequence (P08659 whole entry): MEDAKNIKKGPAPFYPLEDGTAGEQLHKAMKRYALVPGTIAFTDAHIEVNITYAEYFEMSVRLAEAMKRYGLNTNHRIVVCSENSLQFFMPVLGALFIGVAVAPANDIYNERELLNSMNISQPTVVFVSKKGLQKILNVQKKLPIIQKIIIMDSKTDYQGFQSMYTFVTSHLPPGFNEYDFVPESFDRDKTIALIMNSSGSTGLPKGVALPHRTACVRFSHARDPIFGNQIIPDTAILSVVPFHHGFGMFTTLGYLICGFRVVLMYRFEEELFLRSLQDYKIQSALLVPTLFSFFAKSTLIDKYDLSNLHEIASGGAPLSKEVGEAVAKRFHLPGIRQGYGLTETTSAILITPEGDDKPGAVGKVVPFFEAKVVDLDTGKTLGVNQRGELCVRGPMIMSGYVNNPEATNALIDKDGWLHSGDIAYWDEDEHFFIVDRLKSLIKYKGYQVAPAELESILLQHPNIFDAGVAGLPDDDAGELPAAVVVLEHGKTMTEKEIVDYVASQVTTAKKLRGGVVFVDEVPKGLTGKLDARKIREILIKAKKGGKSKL
# Glucose-6-phosphate 1-dehydrogenase, sequence (P11413 whole entry): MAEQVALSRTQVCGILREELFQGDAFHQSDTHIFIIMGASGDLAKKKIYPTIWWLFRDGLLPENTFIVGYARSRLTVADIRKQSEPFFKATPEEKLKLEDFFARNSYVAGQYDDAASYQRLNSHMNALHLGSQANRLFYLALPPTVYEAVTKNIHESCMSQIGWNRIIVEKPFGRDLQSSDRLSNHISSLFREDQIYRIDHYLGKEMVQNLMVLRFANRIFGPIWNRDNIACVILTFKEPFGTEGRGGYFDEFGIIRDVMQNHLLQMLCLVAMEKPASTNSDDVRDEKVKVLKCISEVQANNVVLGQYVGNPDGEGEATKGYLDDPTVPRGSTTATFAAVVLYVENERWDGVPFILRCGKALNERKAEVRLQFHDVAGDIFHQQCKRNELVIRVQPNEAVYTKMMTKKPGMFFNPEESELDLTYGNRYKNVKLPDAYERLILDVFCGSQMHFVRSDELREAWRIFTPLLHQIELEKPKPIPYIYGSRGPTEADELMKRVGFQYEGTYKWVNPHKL
# FAD-linked sulfhydryl oxidase ALR, sequence (P55789 whole entry): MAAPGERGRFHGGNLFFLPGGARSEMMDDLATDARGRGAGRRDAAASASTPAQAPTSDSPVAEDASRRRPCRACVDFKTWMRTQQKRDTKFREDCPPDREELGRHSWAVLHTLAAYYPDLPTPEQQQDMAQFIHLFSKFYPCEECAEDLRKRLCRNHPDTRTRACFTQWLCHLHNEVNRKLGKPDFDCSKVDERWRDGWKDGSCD
smiles,measurement,setting,value
O=C(NCc1cc(Cl)cc(Cl)c1)c1ccc2[nH]c([C@H]3C[C@H](O)[C@@H](CO)O3)nc2c1,IC50,[1],13.5 µM (inactive)
same,IC50,[2],23.8 µM (inactive)
same,IC50,[3],83.3 µM (inactive)
Cc1ccccc1C(=O)Oc1ccc2ccc(O)cc2c1,IC50,Caspase-3,35.4 µM (active)
same,IC50,[4],10.4 µM (active)
same,IC50,[5],12.1 µM (active)
same,IC50,[6],4.59 µM (active)
CCOC(=O)c1sc(Nc2ccccc2Cl)nc1C,IC50,Caspase-3,26.6 µM (active)
same,EC50,H4,43.9 µM (active)
same,IC50,[4],19.8 µM (active)
same,IC50,[5],20.3 µM (active)
same,EC50,[7],1.18 µM (active)
same,IC50,[6],8.78 µM (active)
O=C(CCC(=O)OCC(=O)c1ccc([N+](=O)[O-])cc1)Nc1ccccc1Cl,IC50,[8],> 80 µM (inactive)
COc1ccccc1NC(c1cccnc1)c1ccc2cccnc2c1O (stereo not drawn),EC50,[9],> 38 µM (not active)
same,EC50,[10],> 160 µM (inconclusive)
same,EC50,cells [11],> 350 µM (not active)
same,EC50,cells [12],116 µM (active)
CCOC(=O)c1ccc(-n2c(N)c(C(=O)NCC3CCCO3)sc2=S)cc1 (stereo not drawn),IC50,[8],> 80 µM (inactive)
C=CCc1ccccc1OCC(=O)N/N=C/c1ccccc1OCC,IC50,[8],> 80 µM (inactive)
CC(C)(Oc1ccc(Cl)cc1)C(=O)OCc1nc(O)c2sccc2n1,IC50,[3],83.3 µM (inactive)
O=C(Nc1ccc(S(=O)(=O)N2CCOCC2)cc1)c1ccc([N+](=O)[O-])s1,EC50,[13],42.8 µM (active)
same,AC50,INS1,7.03 µM (active)
same,EC50,[14],0.394 µM (active)
same,CC50,[15],23.2 µM (active)
same,IC50,cells [16],0.7 µM (active)
Cc1ccc(NC(=O)c2ccc3c(c2)OCO3)cc1Cl,IC50,Caspase-3,14 µM (active)
same,IC50,[4],5.35 µM (active)
same,IC50,[5],> 100 µM (inactive)
same,IC50,[6],4.44 µM (active)
CC1(OC(=O)C2CCCC2)C(=O)C=C2C=C(c3ccsc3)N(Cc3ccc4c(c3)OCO4)C=C2C1=O (stereo not drawn),IC50,[8],> 80 µM (inactive)
C/C(=C1/SC(=S)N(CCC(=O)O)C1=O)c1ccc(O)cc1,IC50,[1],9.47 µM (active)
same,IC50,[2],16.6 µM (inactive)
same,EC50,[17],> 112 µM (not active)
same,AC50,[18],4.14 µM (active)
same,EC50,[19],> 112 µM (not active)
same,IC50,[3],83.3 µM (inactive)
Oc1ccccc1-c1csc(-c2ccccc2)n1,IC50,Caspase-3,16.2 µM (active)
same,IC50,[4],7.62 µM (active)
same,IC50,[5],10.7 µM (active)
same,IC50,[6],3.44 µM (active)
CC(C)(Oc1ccc(Cl)cc1)C(=O)OCc1nc2ccsc2c(=O)[nH]1,IC50,[1],9.89 µM (active)
same,IC50,[2],21.6 µM (inactive)
